Experiments:
[1] = target: recombinant human 11β-HSD type 1 enzyme (Homo sapiens, UniProt P28845); test: 11β-HSD Type 1 Enzyme Assay (NADPH fluorescence); type: biochemical; conditions: three hour incubation at room temperature, read-out: Human 11-βHSD1 IC50
Method: 11β-HSD Type 1 Enzyme Assay
Human 11β-HSD type 1 activity is measured by assaying NADPH production by fluorescence assay. Solid compounds are dissolved in DMSO to a concentration of 10 mM. Twenty microliters of each are then transferred to a column of a 96-well polypropylene Nunc plate where they are further diluted 50-fold followed by subsequent two-fold titration, ten times across the plate with additional DMSO using a Tecan Genesis 200 automated system. Plates are then transferred to a Tecan Freedom 200 system with an attached Tecan Temo 96-well head and an Ultra 384 plate reader. Reagents are supplied in 96-well polypropylene Nunc plates and are dispensed individually into black 96-well Molecular Devices High Efficiency assay plates (40 μL/well capacity) in the following fashion: 9 μL/well of substrate (2.22 mM NADP, 55.5 μM Cortisol, 10 mM Tris, 0.25% Prionex, 0.1% Triton X100), 3 μL/well of water to compound wells or 3 μL to control and standard wells, 6 μL/well recombinant human 11β-HSD type 1 enzyme, 2 μL/well of compound dilutions. […] Final DMSO concentration is 0.5% for all compounds, controls and standards. Plates are then placed on a shaker by the robotic arm of the Tecan for 15 seconds before being covered and stacked for a three hour incubation period at room temperature. Upon completion of this incubation, the Tecan robotic arm removes each plate individually from the stacker and places them in position for addition of 5 μL/well of a 250 μM carbenoxolone solution to stop the enzymatic reaction. Plates are then shaken once more for 15 seconds then placed into an Ultra 384 microplate reader (355EX/460EM) for detection of NADPH fluorescence.

[2] = target: T1, 11β-HSD1 in primary human aortic smooth muscle cells (AoSMC) (Homo sapiens, UniProt P28845); test: Human Aortic Smooth Muscle Cell Assay (cortisone to cortisol conversion); type: cell-based; conditions: hTNFα-induced 11β-HSD1, cortisol by time resolved immunoassay
T1 construct: containing 12 ng/mL hTNFα to induce expression of 11β-HSD1; endogenous in cells; host or cells: primary human aortic smooth muscle cells (AoSMC), induced with hTNFα
Method: Human Aortic Smooth Muscle Cell Assay
Primary human aortic smooth muscle cells (AoSMC) are cultured in 5% FBS growth medium to a passage number of 6, then pelleted by centrifugation and resuspended at a density of 9×10^4 cells/mL in 0.5% FBS assay medium containing 12 ng/mL hTNFα to induce expression of 11β-HSD1. Cells are seeded into 96-well tissue culture assay plates at 100 μL/well (9×10^3 cells/well) and incubated for 48 hours at 37° C., 5% CO2. Following induction, cells are incubated for 4 hours at 37° C., 5% CO2 in assay medium containing test compounds then treated with 10 μL/well of 10 μM cortisone solubilized in assay medium, and incubated for 16 hours at 37° C., 5% CO2. Medium from each well is transferred to a plate for subsequent analysis of cortisol using a competitive fluorescence resonance time resolved immunoassay. In solution, an allophycocyanin (APC)-cortisol conjugate and free cortisol analyte compete for binding to a mouse anti-cortisol antibody/Europium (Eu)-anti mouse IgG complex. Higher levels of free cortisol result in diminishing energy transfer from the Europium-IgG to the APC-cortisol complex resulting in less APC fluorescence. Fluorescent intensities for Europium and APC are measured using a LJL Analyst AD. Europium and APC excitation is measured using 360 nm excitation and 615 nm and 650 nm emission filters respectively. Time resolved parameters for Europuium were 1000 μs integration time with a 200 μs delay. APC parameters are set at 150 μs integration time with a 50 μs delay. Fluorescent intensities measured for APC are modified by dividing by the Eu fluorescence (APC/Eu). This ratio is then used to determine the unknown cortisol concentration by interpolation using a cortisol standard curve fitted with a 4-parameter logistic equation. These concentrations are then used to determine compound activity by plotting concentration versus % inhibition, fitting with a 4-parameter curve and reporting the IC50.

[3] = tested on: cortisone conversion; test: Acute In Vivo Cortisone Conversion Assay; set-up: species or system male C57BL/6 mice; conditions: mice, oral dose of 10 mg/kg, cortisone challenge 30 mg/kg s.c. after 16 hours, serum cortisol by LC-MS/MS
Method: Acute In Vivo Cortisone Conversion Assay
In general, compounds are dosed orally into mice, the mice are challenged with a subcutaneous injection of cortisone at a set timepoint after compound injection, and the blood of each animal is collected some time later. Separated serum is then isolated and analyzed for levels of cortisone and cortisol by LC-MS/MS, followed by calculation of mean cortisol and percent inhibition of each dosing group. Specifically, male C57BL/6 mice are obtained from Harlan Sprague Dawley at average weight of 25 grams. Exact weights are taken upon arrival and the mice randomized into groups of similar weights. Compounds are prepared in 1% w-w HEC, 0.25% w-w polysorbate 80, 0.05% w-w Dow Corning antifoam #1510-US at various doses based on assumed average weight of 25 grams. Compounds are dosed orally, 200 μl per animal, followed by a subcutaneous dose, 200 μl per animal, of 30 mg/kg cortisone at 1 to 24 hours post compound dose. At 10 minutes post cortisone challenge, each animal is euthanized for 1 minute in a CO2 chamber, followed by blood collection via cardiac puncture into serum separator tubes. Once fully clotted, tubes are spun at 2500×g, 4° C. for 15 minutes, the serum transferred to wells of 96-well plates (Corning Inc, Costar #4410, cluster tubes, 1.2 ml, polypropylene), and the plates are frozen at −20° C. until analysis by LC-MS/MS. For analysis, serum samples are thawed and the proteins are precipitated by the addition of acetonitrile containing d-4-cortisol internal standard. Samples are vortex mixed and centrifuged. The supernatant is removed and dried under a stream of warm nitrogen. Extracts are reconstituted in methanol/water (1:1) and injected onto the LC-MS/MS system. The levels of cortisone and cortisol are assayed by selective reaction monitoring mode following positive ACPI ionization on a triple quadrupole mass spectrophotometer.

T1 sequence (P28845 whole entry): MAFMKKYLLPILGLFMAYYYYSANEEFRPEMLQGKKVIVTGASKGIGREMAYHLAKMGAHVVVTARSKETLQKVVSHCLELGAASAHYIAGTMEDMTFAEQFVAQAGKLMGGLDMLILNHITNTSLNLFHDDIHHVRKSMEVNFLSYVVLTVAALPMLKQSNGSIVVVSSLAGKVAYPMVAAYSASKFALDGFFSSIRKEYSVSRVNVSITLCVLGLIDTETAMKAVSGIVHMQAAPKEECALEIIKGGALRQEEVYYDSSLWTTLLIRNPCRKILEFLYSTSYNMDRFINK
Chain of recombinant human 11β-HSD type 1 enzyme (P28845 whole entry): as above

| Structure (SMILES) | IC50 [1] | IC50 [2] | % Inhibition after 16 hours (dose of 10 (mg/kg)) [3] |
| --- | --- | --- | --- |
| O=C1C(Cc2c(Cl)cc(-c3ccc(F)cc3)cc2Cl)CCN1C1CCc2[nH]cnc2C1 (stereo not shown) [Example 15, 3-(3,5-Dichloro-4′-fluoro-biphenyl-4-ylmethyl)-1-(4,5,6,7-tetrahydro-1H-benzoimidazol-5-yl)-pyrrolidin-2-one] | 214 nM | 3.2 nM | – |
| O=C1C(Cc2c(Cl)cc(-c3ccc(Cl)cc3)cc2Cl)CCN1C1CCc2nc[nH]c2C1 (stereo not shown) [Example 1, 1-(4,5,6,7-Tetrahydro-3H-benzoimidazol-5-yl)-3-(3,5,4′-trichloro-biphenyl-4-ylmethyl)-pyrrolidin-2-one] | 325 nM | 6.8 nM | – |

Second part, led by results:

| IC50 [1] | IC50 [2] | Structure (SMILES) | % Inhibition after 16 hours (dose of 10 (mg/kg)) [3] |
| --- | --- | --- | --- |
| 175 nM | 3 nM | O=C1[C@H](Cc2c(Cl)cc(-c3ccc(N4CCOCC4)nc3F)cc2Cl)CCN1C1CCc2[nH]cnc2C1 (stereo partly drawn) [Example 32, (R)-3-[2,6-Dichloro-4-(2-fluoro-6-morpholin-4-yl-pyridin-3-yl)-benzyl]-1-(4,5,6,7-tetrahydro-1H-benzoimidazol-5-yl)-pyrrolidin-2-one] | 59.2% |
| 143 nM | 4.5 nM | O=C(c1ccc(-c2cc(Cl)c(C[C@@H]3CCN(C4CCc5nc[nH]c5C4)C3=O)c(Cl)c2)cc1)N1CCC(C(F)(F)F)CC1 (stereo partly shown) [Example 42, 3-[R]-[3,5-Dichloro-4′-(4-trifluoromethyl-piperidine-1-carbonyl)-biphenyl-4-ylmethyl]-1-(4,5,6,7-tetrahydro-3H-benzoimidazol-5-yl)-pyrrolidin-2-one] | 98.4% |
| 75.4 nM | 0.6 nM | O=C1[C@H](Cc2c(Cl)cc(-c3ccc(N4CCOCC4)cc3)cc2Cl)CCN1C1CCc2[nH]cnc2C1 (stereo partly drawn) [Example 29, (R)-3-(3,5-Dichloro-4′-morpholin-4-yl-biphenyl-4-ylmethyl)-1-(4,5,6,7-tetrahydro-1H-benzoimidazol-5-yl)-pyrrolidin-2-one] | 52% |

Reference: patent US7820659B2, “Cyclohexylimidiazole lactam derivatives as inhibitors of 11-β-hydroxysteroid dehydrogenase 1” (Eli Lilly and Company, priority 2006, dated 2010)
